Test results taken from patent US4874779A, “Mitomycin phosphate derivatives” (priority 1988, dated 1989).
Where a name gives a salt, the structure may show the parent alone. Read-outs that look alike come from different tables or passages of the source.

Tests used:
human lung tumor H2981 = test: Antitumor activity against subcutaneous human lung tumor H2981 xenograft in Balb C nu/nu female mice; format: in vivo; conditions: for time required to reach an average tumor volume of 750 mm^3: IIa 0.2 ml of 1 mg/ml, V 0.2 ml of 3 mg/ml, i.p. days 15, 21, 31, 37, untreated control 27 days
Method: The arrows indicate the days on which drugs were given.
Antitumor activity of the compound of Example 1 (V) was evaluated in Balb C nu/nu female mice (4-6 weeks old, purchased from Life Sciences, St. Petersburg, Fl) implanted subcutaneously with a xenograft of human lung tumor H2981 in the right hind flank. Compound IIa served as positive control. Drug treatment was initiated on day 15 (day 0 being the day of tumor implant) when the tumors were approximately 100 mm^3 in volume. 0.2 Ml of the test compounds (1 mg/ml for IIa and 3 mg/ml for V in phosphate-buffered saline) were injected intraperitoneally on days 15, 21, 31, and 37. The results are graphically shown in FIG. 1 and indicate that the time required to reach an average tumor volume of 750 mm^3 was 45 days in mice treated with IIa, 63 days in mice treated with V, and 27 days in the untreated control group.

[1] = Relative toxicity in Balb C nu/nu mice; format: in vivo; conditions: for LD50 / MTD at 600 h: mouse, in vivo, ip; for LD50: two equal doses spaced 4 days apart; for MTD at 600 h: 4 equal doses over a 25 day period, read-out: total amount tolerated
Method: The relative toxicities of IIa and V were determined in Balb C nu/nu mice. […] Total amounts of up to 40 mg/kg of IIa and 100 mg/kg of V were tolerated if given in 4 equal doses over a 25 day period.

[2] = system: human lung tumor cell line H2981; test: Cytotoxicity to H2981 cells by inhibition of 3H-Thy incorporation; format: cell-based; conditions: for cytotoxic activity (in words): without alkaline phosphatase pre-treatment; for IC50: Homo sapiens
Method: Cytotoxicity of compounds V, IIa, and mitomycin C was determined using human lung tumor cell line H2981. Thus a suspension of H2981 cells in Iscove's medium (IMDM) containing 10% fetal calf serum were plated into 96-well microtiter plates (10,000 cells/well). After 1 hr, the medium was removed, a pH 7.2 phosphate buffered saline solution (PBS) of the drug was added, and incubation at 37° C. was commenced for 1 hour. The cells were then washed twice, and incubation was continued an additional 17 hours, followed by a 6 hour pulse with ^3 H-Thy (1.0 μCi/well). The plates were frozen at -70° C. to detach the cells, and the cells were harvested onto glass fiber discs. The filters were counted on a Beckman 3701 scintillation counter. Inhibition of ^3 H-Thy incorporation was used as an indicator for cytotoxic effects.

SMILES | antitumor effect compared with the corresponding alcohol (IIa) (human lung tumor H2981; H2981 xenograft, i.p.) | time required to reach an average tumor volume of 750 mm^3 (human lung tumor H2981) [days] | LD50 [1] [mg/kg] | MTD at 600 h [1] [mg/kg] | tolerability of prodrug (in words) ([1]; relative to IIa) | cytotoxicity after pre-treatment with alkaline phosphatase (in words) ([2]; H2981 cells, V pre-treated with alkaline phosphatase) | cytotoxic activity (in words) ([2]; H2981 cells) | IC50 ([2]; H2981, 1 h, pH 7.2, read-out: IC50 (cytotoxicity, inhibition of 3H-Thy incorporation)) [nM] | IC50 ([2]; H2981 cells, 1 hour drug exposure in pH 7.2 PBS at 37° C., 17 hours further incubation, 6 hour 3H-Thy pulse, read-out: IC50 (cytotoxicity, inhibition of 3H-Thy incorporation)) [nM]
COC12C(COC(N)=O)C3=C(C(=O)C(C)=C(NCCOP(=O)(O)O)C3=O)N1CC1NC12 (centres unmarked) [Example 1, 9a-Methoxy-7-[[(phosphonooxy)ethyl]amino]mitosane disodium salt] | stronger antitumor effect than the corresponding alcohol | 63 | 90 | ≤ 100 | significantly more prodrug was tolerated because of its reduced toxicity | cytotoxicity comparable to that of IIa and mitomycin C | A small amount of cytotoxic activity | – | –
COC12C(COC(N)=O)C3=C(C(=O)C(C)=C(NCCO)C3=O)N1CC1NC12 (centres unmarked) [IIa] | – | 45 | 45 | ≥ 40 | – | – | highly cytotoxic | ~1000 | –
CO[C@@]12[C@H](COC(N)=O)C3=C(C(=O)C(C)=C(N)C3=O)N1C[C@@H]1N[C@@H]12 [mitomycin C] | – | – | – | – | – | – | highly cytotoxic | – | ~1000
